Experimental data: US8178658B2 (Dow AgroSciences, LLC, priority 2008, dated 2012)
Read-outs that look alike come from different tables or passages of the source.

Assays:
[1] = test system: beet armyworm (BAW; Spodoptera exigua: Lepidoptera); assay: 96-well microtiter plate-based high throughput (HTS) diet bioassay on beet armyworm (BAW HTS); assay type: in vivo; settings: for pest or weed control at 12 µg/well, 12 µg/well: Spodoptera exigua, 144 h, read-out: BAW HTS
Method in brief: (§1)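 Mortality is the read-out for both formats, scored against a 50% cut-off. Microplate wells received eggs over diet carrying 12 μg test compound, kept in darkness at 29° C for 6 d, six replicates averaged. Diet-tray wells held second instar larvae on diet at 50 μg/cm^2, kept 6 d at 25° C under 14:10 photoperiod.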

[2] = test system: beet armyworm (BAW; Spodoptera exigua: Lepidoptera); assay: 128-well diet tray assay on beet armyworm (BAW 50); assay type: in vivo; settings: for pest or weed control at 50 µg/cm2, 50 µg/cm2: Spodoptera exigua, 144 h, read-out: BAW 50 ug/cm2
Method in brief: as §1

[3] = 96-well microtiter plate HTS diet assay, 12 μg test compound per well, BAW eggs, mortality at 6 d post-treatment, mortality class
[4] = 96-well HTS diet assay, BAW eggs, 12 μg test compound per well, mortality at 6 d post-treatment, mortality class
[5] = 128-well diet tray assay, 50 μg/cm^2 of test compound on diet, second instar BAW larvae, mortality class
[6] = 96-well HTS diet bioassay, BAW eggs, 12 μg test compound per well, mortality at 6 d post-treatment, mortality class

| Structure (SMILES) | BAW HTS [1, 3] | BAW 50 ug/cm2 [2, 5] | BAW HTS [1, 4] | BAW HTS [1, 6] | other results |
| --- | --- | --- | --- | --- | --- |
| CCO[C@@H]1[C@@H](OC)[C@H](C)O[C@@H](O/N=C2\CCc3cc(-c4ncn(-c5ccc(OC(F)(F)F)cc5)n4)ccc32)[C@@H]1OC [Compound 170, 5-[1-(4-trifluoromethoxyphenyl)-1H-[1,2,4]triazol-3-yl]-indan-1-one O-((2S,3R,4R,5S,6S)-4-ethoxy-3,5-dimethoxy-6-methyl-tetrahydropyran-2-yl)-oxime] | B (either (1) the compound was tested and less than 50 percent mortality was observed or (2) the compound was not tested) | A (the compound was tested and at least 50 percent mortality was observed) | – | – | pest or weed control at 12 µg/well, 12 µg/well [1, 4]: < 50%; pest or weed control at 50 µg/cm2, 50 µg/cm2 ([2]; 128-well diet tray assay, second instar BAW larvae, 50 μg/cm^2 of test compound on diet, mortality class): > 50% |
| CO[C@@H]1[C@@H](OC)[C@H](C)O[C@@H](OC(=S)Nc2ccc(-c3cn(-c4ccc(OC(F)(F)F)cc4)cn3)cc2)[C@@H]1OC [Compound 176] | B (either (1) the compound was tested and less than 50 percent mortality was observed or (2) the compound was not tested) | A (the compound was tested and at least 50 percent mortality was observed) | – | – | pest or weed control at 12 µg/well, 12 µg/well [1]: < 50%; pest or weed control at 50 µg/cm2, 50 µg/cm2 [2]: > 50% |
| CO[C@@H]1[C@@H](OC)[C@H](C)O[C@@H](ON=Cc2ccc(-c3ncn(-c4ccc([S+]([O-])C(F)(F)F)cc4)n3)cc2)[C@@H]1OC (stereo partly drawn) [Compound 103, 4-[1-(4-trifluoromethanesulfinylphenyl)-1H-[1,2,4]triazol-3-yl]-benzaldehyde O-((2S,3R,4R,5S,6S)-3,4,5-trimethoxy-6-methyl-tetrahydropyran-2-yl)-oxime] | B (either (1) the compound was tested and less than 50 percent mortality was observed or (2) the compound was not tested) | A (the compound was tested and at least 50 percent mortality was observed) | – | – | pest or weed control at 12 µg/well, 12 µg/well [1, 6]: < 50%; pest or weed control at 50 µg/cm2, 50 µg/cm2 ([2]; 128-well diet tray assay, second instar BAW larvae, 50 μg/cm2 of test compound on diet, mortality class): > 50% |
| COC1C(C)OC(ON=Cc2ccc(-c3cc(-c4ccc(OC(F)(F)F)cc4)ccn3)cc2)C(OC)C1OC (centres unmarked) [Compound 133] | B (either (1) the compound was tested and less than 50 percent mortality was observed or (2) the compound was not tested) | A (the compound was tested and at least 50 percent mortality was observed) | B (either (1) the compound was tested and less than 50 percent mortality was observed or (2) the compound was not tested) | – | – |
| C=CCN(C(=O)O[C@@H]1O[C@@H](C)[C@H](OC)[C@@H](OCC)[C@H]1OC)c1ccc(-c2ncn(-c3ccc(OC(F)(F)C(F)(F)F)cc3)n2)cc1 [Compound 256, allyl {4-[1-(4-pentafluoroethoxy-phenyl)-1H-[1,2,4]triazol-3-yl]-phenyl}-carbamic acid (2S,3R,4R,5S,6S)-4-ethoxy-3,5-dimethoxy-6-methyl-tetrahydropyran-2-yl ester] | A (the compound was tested and at least 50 percent mortality was observed) | A (the compound was tested and at least 50 percent mortality was observed) | – | – | pest or weed control at 12 µg/well, 12 µg/well [1]: > 50%; pest or weed control at 50 µg/cm2, 50 µg/cm2 [2]: > 50% |
| COC1C(C)OC(ON=Cc2ccc(-c3ccn(-c4ccc(OC(F)(F)F)cc4)n3)cc2)C(OC)C1OC (centres unmarked) [Compound 12] | B (either (1) the compound was tested and less than 50 percent mortality was observed or (2) the compound was not tested) | A (the compound was tested and at least 50 percent mortality was observed) | – | B (either (1) the compound was tested and less than 50 percent mortality was observed or (2) the compound was not tested) | – |
| COC1C(C)OC(ON=Cc2ccc(-c3ncn(-c4cccc(OC(F)(F)F)c4)n3)cc2)C(OC)C1OC (centres unmarked) [Compound 91] | B (either (1) the compound was tested and less than 50 percent mortality was observed or (2) the compound was not tested) | A (the compound was tested and at least 50 percent mortality was observed) | – | B (either (1) the compound was tested and less than 50 percent mortality was observed or (2) the compound was not tested) | – |
| CCOC1C(OC)C(C)OC(ON=Cc2ccc(-c3ncn(-c4ccc(OC(F)(F)C(F)(F)F)cc4)n3)cc2)C1OC (centres unmarked) [Compound 93] | A (the compound was tested and at least 50 percent mortality was observed) | A (the compound was tested and at least 50 percent mortality was observed) | – | A (the compound was tested and at least 50 percent mortality was observed) | – |
| CCCCO[C@@H]1[C@@H](OC)[C@H](C)O[C@@H](OC(=O)Nc2ccc(-c3cn(-c4ccc(OC(F)(F)F)cc4)cn3)cc2)[C@@H]1OC [Compound 175] | A (the compound was tested and at least 50 percent mortality was observed) | A (the compound was tested and at least 50 percent mortality was observed) | A (the compound was tested and at least 50 percent mortality was observed) | – | – |
| CO[C@@H]1[C@@H](OC)[C@H](C)O[C@@H](OC(=O)Nc2ccc(-c3ncn(-c4ccc(OC(F)(F)F)cc4)n3)cc2)[C@@H]1OC [Compound 191, {4-[1-(4-trifluoromethoxyphenyl)-1H-[1,2,4]triazol-3-yl]-phenyl}-carbamic acid (2S,3R,4R,5S,6S)-3,4,5-trimethoxy-6-methyl-tetrahydropyran-2-yl ester] | A (the compound was tested and at least 50 percent mortality was observed) | A (the compound was tested and at least 50 percent mortality was observed) | – | – | pest or weed control at 12 µg/well, 12 µg/well [1]: > 50%; pest or weed control at 50 µg/cm2, 50 µg/cm2 [2]: > 50% |
| CCOC1C(OC)C(C)OC(ON=Cc2ccc(-c3ncc(-c4ccc(C#N)cc4)cn3)cc2)C1OC (centres unmarked) [Compound 154] | B (either (1) the compound was tested and less than 50 percent mortality was observed or (2) the compound was not tested) | A (the compound was tested and at least 50 percent mortality was observed) | B (either (1) the compound was tested and less than 50 percent mortality was observed or (2) the compound was not tested) | – | – |
| COC1C(C)OC(ON=Cc2ccc(-c3cn(-c4ccc(I)cn4)cn3)cc2)C(OC)C1OC (centres unmarked) [Compound 39] | B (either (1) the compound was tested and less than 50 percent mortality was observed or (2) the compound was not tested) | A (the compound was tested and at least 50 percent mortality was observed) | – | B (either (1) the compound was tested and less than 50 percent mortality was observed or (2) the compound was not tested) | – |
| COC1C(C)OC(ON=Cc2ccc(-c3ncn(-c4ccc(C(C)(C)C)cc4)n3)cc2)C(OC)C1OC (centres unmarked) [Compound 86] | B (either (1) the compound was tested and less than 50 percent mortality was observed or (2) the compound was not tested) | A (the compound was tested and at least 50 percent mortality was observed) | – | B (either (1) the compound was tested and less than 50 percent mortality was observed or (2) the compound was not tested) | – |
| COC1C(C)OC(ON=Cc2ccc(-c3ncn(-c4ccc(Cl)cc4)n3)cc2)C(OC)C1OC (centres unmarked) [Compound 84] | B (either (1) the compound was tested and less than 50 percent mortality was observed or (2) the compound was not tested) | A (the compound was tested and at least 50 percent mortality was observed) | – | B (either (1) the compound was tested and less than 50 percent mortality was observed or (2) the compound was not tested) | – |
| CCOC1C(C)OC(ON=Cc2ccc(-c3cn(-c4ccc(C(F)(F)F)cn4)cn3)cc2)C(OCC)C1OCC (centres unmarked) [Compound 33] | A (the compound was tested and at least 50 percent mortality was observed) | A (the compound was tested and at least 50 percent mortality was observed) | – | A (the compound was tested and at least 50 percent mortality was observed) | – |
| CO[C@@H]1[C@@H](OC)[C@H](C)O[C@@H](OC(=O)Nc2ccc(-c3ncn(-c4ccc(OC(F)(F)C(F)(F)F)cc4)n3)cc2)[C@@H]1OC [Compound 200] | A (the compound was tested and at least 50 percent mortality was observed) | A (the compound was tested and at least 50 percent mortality was observed) | A (the compound was tested and at least 50 percent mortality was observed) | – | – |
| CCCOC1C(OC)C(C)OC(ON=Cc2ccc(N3CCN(c4ccc(OC(F)(F)F)cc4)CC3)cc2)C1OC (centres unmarked) [Compound 162] | B (either (1) the compound was tested and less than 50 percent mortality was observed or (2) the compound was not tested) | A (the compound was tested and at least 50 percent mortality was observed) | B (either (1) the compound was tested and less than 50 percent mortality was observed or (2) the compound was not tested) | – | – |
| CCO[C@@H]1[C@@H](OC)[C@H](C)O[C@@H](OC(=O)Nc2ccc(-c3nncc(-c4ccc(OC(F)(F)F)cc4)n3)cc2)[C@@H]1OC [Compound 237] | B (either (1) the compound was tested and less than 50 percent mortality was observed or (2) the compound was not tested) | A (the compound was tested and at least 50 percent mortality was observed) | B (either (1) the compound was tested and less than 50 percent mortality was observed or (2) the compound was not tested) | – | – |
